Read-outs that look alike come from different tables or passages of the source.
What was measured:
[1] = biological target: T1, Mushroom tyrosinase (EC 1.14.18.1) (Agaricus bisporus, UniProt C7FF04); assay: Mushroom tyrosinase inhibition assay (L-tyrosine or L-DOPA as substrate); type: biochemical
T1 construct: purchased Sigma-Aldrich
Experimental: In order to evaluate the inhibitory effects of synthesized furan chalcone derivatives on the enzyme activity, tested compounds were subjected to a mushroom tyrosinase inhibition assay with monophenolase (L-tyrosine) or diphenolase (L-3,4-dihydroxyphenyl-alanine; L-DOPA) as the substrates.
Mushroom tyrosinase inhibition was determined following our previously reported methods. All experiments were done in triplicate. […] The measurement was completed in triplicate for each concentration and averaged. The IC50 values were determined by interpolation of the dose-inhibition % curves.

[2] = biological target: T2, mushroom tyrosinase (Agaricus bisporus, UniProt C7FF04); settings: reported inhibitor type of mushroom tyrosinase; cited from earlier work
T2 construct: purchased Sigma-Aldrich
T2 sequence (C7FF04 1-392): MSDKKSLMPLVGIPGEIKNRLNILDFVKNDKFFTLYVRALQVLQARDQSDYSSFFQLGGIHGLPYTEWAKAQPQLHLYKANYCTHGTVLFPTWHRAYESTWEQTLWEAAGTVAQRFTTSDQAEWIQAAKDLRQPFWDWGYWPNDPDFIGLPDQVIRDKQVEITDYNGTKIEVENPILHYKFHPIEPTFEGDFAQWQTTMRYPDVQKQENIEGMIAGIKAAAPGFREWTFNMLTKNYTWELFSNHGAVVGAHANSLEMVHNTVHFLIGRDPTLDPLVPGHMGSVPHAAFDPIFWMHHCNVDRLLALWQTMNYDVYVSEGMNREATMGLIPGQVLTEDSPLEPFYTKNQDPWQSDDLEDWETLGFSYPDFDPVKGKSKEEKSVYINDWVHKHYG

[3] = biological target: T1, Mushroom tyrosinase (EC 1.14.18.1); parameters: method as in PMID 30360412; settings: earlier results of the authors, cited from earlier work
[4] = L-DOPA as substrate (diphenolase), mean ± SEM of triplicate, read-out: IC50 (μM) b
[5] = L-tyrosine as substrate (monophenolase), mean ± SEM of triplicate, read-out: IC50 (μM) a
[6] = IC50 (μM) b, L-DOPA as substrate (diphenolase), mean ± SEM of triplicate

T1 sequence (C7FF04 1-392): as above

Row | SMILES | IC50 [1, 4] [µM] | IC50 [1, 5] [µM] | further results
1 | O=C(/C=C/c1ccc(O)c(O)c1)c1ccco1 [Compound 2, (E)-3-(3,4-Dihydroxyphenyl)-1-(furan-2-yl)prop-2-en-1-one] | 24.9 ± 3.25 | 84.9 ± 3.79 | –
2 | O=C(O)c1ccccc1C(=O)O [Phthalic acid, reference compound] | – | – | IC50 [1]: > 200 µM; IC50 [1, 6]: > 200 µM; inhibition type [2]: mixed-type
3 | O=C(/C=C/c1ccc(O)c(Br)c1)c1ccco1 [Compound 6, (E)-3-(3-Bromo-4-hydroxyphenyl)-1-(furan-2-yl)prop-2-en-1-one] | > 200 | 51.2 ± 3.73 | –
4 | O=C(/C=C/c1ccc(O)cc1)c1ccco1 [Compound 1, (E)-1-(Furan-2-yl)-3-(4-hydroxyphenyl)prop-2-en-1-one] | > 200 | 28.9 ± 1.21 | –
5 | O=C(/C=C/c1cc(Br)c(O)c(Br)c1)c1ccco1 [Compound 7, (E)-3-(3,5-Dibromo-4-hydroxyphenyl)-1-(furan-2-yl)prop-2-en-1-one] | 27.2 ± 0.38 | > 200 | –
6 | COc1cc(/C=C/C(=O)c2ccco2)cc(OC)c1O [Compound 5, (E)-1-(Furan-2-yl)-3-(4-hydroxy-3,5-dimethoxyphenyl)prop-2-en-1-one] | > 200 | > 200 | –
7 | O=C(O)/C=C/c1ccccc1 [Cinnamic acid, reference compound] | – | – | IC50 [1]: > 200 µM; IC50 [1, 6]: > 200 µM; inhibition type [2]: mixed-type
8 | COc1ccc(/C=C/C(=O)c2ccco2)cc1O [Compound 4, (E)-1-(Furan-2-yl)-3-(3-hydroxy-4-methoxyphenyl)prop-2-en-1-one] | 37.4 ± 4.89 | 13.6 ± 3.74 | –
9 | COc1cc(/C=C/C(=O)c2ccco2)ccc1O [Compound 3, (E)-1-(Furan-2-yl)-3-(4-hydroxy-3-methoxyphenyl)prop-2-en-1-one] | > 200 | > 200 | –
10 | O=C(/C=C/c1cccs1)c1ccc(O)cc1O [(E)-2,4-dihydroxyphenyl-(thiophen-2-yl)prop-2-en-1-one] | – | – | IC50 ([3]; diphenolase): 0.93 µM; IC50 ([3]; monophenolase): 0.013 µM

Reference: publication PMC7700175, “(E)-1-(Furan-2-yl)-(substituted phenyl)prop-2-en-1-one Derivatives as Tyrosinase Inhibitors and Melanogenesis Inhibition: An In Vitro and In Silico Study” (Molecules, 2020)
